Reference: patent publication US12162840B2, “Herbicidal compositions” (SYNGENTA PARTICIPATIONS AG, priority 2018, dated 2024)

Tests used:
Assay in all cases: B1 Post-emergence efficacy Test 1
Type in all cases: in vivo
Conditions in all cases: post-emergence application, 1000 g/ha, evaluated after 13 days
[1] = test system: Ipomoea hederacea (IPOHE)
Method: (§1) Seeds of a variety of test species are sown in standard soil in pots:—Solanum nigrum (SOLNI), Amaranthus retoflexus (AMARE), Setaria faberi (SETFA), Alopecurus myosuroides (ALOMY), Echinochloa crus-galli (ECHCG), Ipomoea hederacea (IPOHE), Lolium perenne (LOLPE). After 8 days cultivation (post-emergence) under controlled conditions in a glasshouse (at 24/16° C., day/night; 14 hours light; 65% humidity), the plants are sprayed with an aqueous spray solution derived from the formulation of the technical active ingredient in acetone/water (50:50) solution containing 0.5% Tween 20 (polyoxyethylene sorbitan monolaurate, CAS RN 9005-64-5). Compounds are applied at 1000 g/ha. The test plants are then grown in a glasshouse under controlled conditions in a glasshouse (at 24/16° C., day/night; 14 hours light; 65% humidity) and watered twice daily. After 13 days, the test is evaluated for the percentage damage caused to the plant. The biological activities are assessed on a five point scale (5=80-100%; 4=60-79%; 3=40-59%; 2=20-39%; 1=0-19%). A blank value in the table is indicative that the compound was not tested on that species.

Solanum nigrum (SOLNI) = test system: Solanum nigrum (SOLNI)
Method: as §1

Setaria faberi (SETFA) = test system: Setaria faberi (SETFA)
Method: as §1

Lolium perenne (LOLPE) = test system: Lolium perenne (LOLPE)
Method: as §1

[2] = test system: Echinochloa crus-galli (ECHCG)
Method: as §1

[3] = test system: Amaranthus retoflexus (AMARE)
Method: as §1

Compound | percentage damage caused to the plant, five point scale, IPOHE [1] | percentage damage caused to the plant, five point scale, SOLNI (Solanum nigrum (SOLNI)) | percentage damage caused to the plant, five point scale, SETFA (Setaria faberi (SETFA)) | percentage damage caused to the plant, five point scale, LOLPE (Lolium perenne (LOLPE)) | percentage damage caused to the plant, five point scale, ECHCG [2] | percentage damage caused to the plant, five point scale, AMARE [3]
Cc1nn(C)c(=O)c(-c2c(F)ccc(Cl)c2CCc2ccccc2)c1O [Compound 1.001] | 5 (5=80-100%) | 5 (5=80-100%) | 5 (5=80-100%) | 5 (5=80-100%) | 5 (5=80-100%) | 5 (5=80-100%)
Cc1nn(C)c(=O)c(-c2c(F)ccc(Cl)c2/C=C/c2ccccc2)c1O [Compound 1.002] | 5 (5=80-100%) | 5 (5=80-100%) | 3 (3=40-59%) | 4 (4=60-79%) | 4 (4=60-79%) | 4 (4=60-79%)
Cc1nn(C)c(=O)c(-c2c(F)ccc(Cl)c2CCc2ccc(Cl)cc2)c1O [Compound 1.012] | 5 (5=80-100%) | 5 (5=80-100%) | 5 (5=80-100%) | 5 (5=80-100%) | 5 (5=80-100%) | 5 (5=80-100%)
Cc1nn(C)c(=O)c(-c2c(F)ccc(Cl)c2CCc2ccc(C(F)(F)F)cc2)c1O [Compound 1.018] | 5 (5=80-100%) | 5 (5=80-100%) | 5 (5=80-100%) | 5 (5=80-100%) | 5 (5=80-100%) | 5 (5=80-100%)
Cc1nn(C)c(=O)c(-c2c(F)ccc(Cl)c2CCc2cccnc2)c1O [Compound 1.054] | 5 (5=80-100%) | 5 (5=80-100%) | 5 (5=80-100%) | 5 (5=80-100%) | 5 (5=80-100%) | 5 (5=80-100%)
Cc1nn(C)c(=O)c(-c2c(F)ccc(Cl)c2CCc2ccc(F)c(F)c2)c1O [Compound 1.060] | 5 (5=80-100%) | 5 (5=80-100%) | 5 (5=80-100%) | 5 (5=80-100%) | 5 (5=80-100%) | 5 (5=80-100%)
Cc1nn(C)c(=O)c(-c2c(F)ccc(Cl)c2CCc2ccc(C(F)(F)F)cc2)c1OC(=O)C(C)C [Compound 1.095] | 5 (5=80-100%) | 5 (5=80-100%) | – | 5 (5=80-100%) | 5 (5=80-100%) | 5 (5=80-100%)
Cc1ccc(CCc2c(Cl)ccc(F)c2-c2c(OC(=O)C(C)C)c(C)nn(C)c2=O)cc1 [Compound 1.149] | 5 (5=80-100%) | 5 (5=80-100%) | 5 (5=80-100%) | 5 (5=80-100%) | 5 (5=80-100%) | 5 (5=80-100%)
